In PMC3020594 (International journal of biological macromolecules, 2010) one finds Ki data, which are given here for two compounds.

This assay has as its target human cytidine deaminase (CDA) (Homo sapiens, UniProt P32320, Y33G). Briefly: biochemical. The class given is biochemical.

pKi: −log10 of the molar value. Read-outs that look alike come from different tables or passages of the source.

Chain of human cytidine deaminase (CDA) (P32320 whole entry Y33G): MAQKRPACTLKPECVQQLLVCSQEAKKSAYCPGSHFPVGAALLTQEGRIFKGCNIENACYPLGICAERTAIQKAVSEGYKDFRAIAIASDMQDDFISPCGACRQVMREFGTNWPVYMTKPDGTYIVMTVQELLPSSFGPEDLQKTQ

On to “6-[3,5(cytidyl)acryloylamino] hexanoic acid [CV6]”, for which the pKi (read-out: Y33G) is 5.47.

Take `O=c1ncc(F)cn1[C@@H]1O[C@H](CO)[C@@H](O)[C@H]1O` [5-FZEB, 5-Fluorozebularine]: the pKi is 6.70.
